According to ChEMBL document CHEMBL3351747, “Structure-based design of β1i or β5i specific inhibitors of human immunoproteasomes” (J Med Chem, 2014):

What was measured:
[1] = target: T1, Proteasome subunit beta type-10 (Homo sapiens, UniProt P40306); experiment: Inhibition of proteasome subunit beta-2i in human Raji cells using BODIPY- epoxomicin by fluorescent densitometry; type: cell-based
T1 sequence (P40306 whole entry): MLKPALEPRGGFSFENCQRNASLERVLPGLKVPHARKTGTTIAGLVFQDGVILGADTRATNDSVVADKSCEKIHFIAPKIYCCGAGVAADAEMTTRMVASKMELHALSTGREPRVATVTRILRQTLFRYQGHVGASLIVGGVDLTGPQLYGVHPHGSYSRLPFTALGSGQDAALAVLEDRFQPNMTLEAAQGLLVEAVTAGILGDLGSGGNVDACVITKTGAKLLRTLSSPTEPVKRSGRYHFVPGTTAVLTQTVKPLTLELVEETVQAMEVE

[2] = Inhibition of 20s proteasome subunit beta-2c in human RPMI8226 cells using BODIPY-epoxomicin by fluorescent densitometry; type: cell-based; settings: rpmi-8226
[3] = target: T2, Proteasome subunit beta type-9 (Homo sapiens, UniProt P28065); experiment: Inhibition of proteasome subunit beta-1i in human RPMI8226 cells using BODIPY-NC001 by fluorescent densitometry; type: cell-based, RPMI-8226
T2 sequence (P28065 whole entry): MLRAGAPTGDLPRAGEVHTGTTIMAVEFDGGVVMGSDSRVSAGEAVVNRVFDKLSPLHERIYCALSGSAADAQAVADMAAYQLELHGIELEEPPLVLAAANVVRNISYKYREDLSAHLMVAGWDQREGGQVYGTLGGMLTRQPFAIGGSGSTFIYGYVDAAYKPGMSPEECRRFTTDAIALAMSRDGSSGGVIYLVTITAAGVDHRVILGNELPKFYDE

[4] = target: T3, Proteasome subunit beta type-8 (Homo sapiens, UniProt P28062); experiment: Inhibition of proteasome subunit beta-5i in human Raji cells using BODIPY-NC005 by fluorescent densitometry; type: cell-based
T3 sequence (P28062 whole entry): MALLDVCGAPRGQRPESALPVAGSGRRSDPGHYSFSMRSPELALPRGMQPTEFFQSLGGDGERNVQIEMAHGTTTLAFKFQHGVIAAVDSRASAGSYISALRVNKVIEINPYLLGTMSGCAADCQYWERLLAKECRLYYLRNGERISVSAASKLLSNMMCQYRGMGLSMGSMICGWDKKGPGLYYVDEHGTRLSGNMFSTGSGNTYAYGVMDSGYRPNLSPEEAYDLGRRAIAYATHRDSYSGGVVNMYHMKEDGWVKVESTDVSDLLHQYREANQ

[5] = Inhibition of 20s proteasome subunit beta-1c in human Raji cells using BODIPY- epoxomicin by fluorescent densitometry; type: cell-based
[6] = target: T3, Proteasome subunit beta type-8; experiment: Inhibition of proteasome subunit beta-5i in human RPMI8226 cells using BODIPY-NC005 by fluorescent densitometry; type: cell-based, RPMI-8226
[7] = Inhibition of 20s proteasome subunit beta-5c in human RPMI8226 cells using BODIPY-NC005 by fluorescent densitometry; type: cell-based; settings: rpmi-8226
[8] = Inhibition of 20s proteasome subunit beta-5c in human Raji cells using BODIPY-NC005 by fluorescent densitometry; type: cell-based
[9] = target: T2, Proteasome subunit beta type-9; experiment: Inhibition of proteasome subunit beta-1i in human Raji cells using BODIPY- epoxomicin by fluorescent densitometry; type: cell-based
[10] = Inhibition of 20s proteasome subunit beta-2c in human Raji cells using BODIPY- epoxomicin by fluorescent densitometry; type: cell-based
[11] = target: T1, Proteasome subunit beta type-10; experiment: Inhibition of proteasome subunit beta-2i in human RPMI8226 cells using BODIPY-epoxomicin by fluorescent densitometry; type: cell-based, RPMI-8226
[12] = Inhibition of 20s proteasome subunit beta-1c in human RPMI8226 cells using BODIPY-NC001 by fluorescent densitometry; type: cell-based; settings: rpmi-8226
[13] = Inhibition of proteasome subunit beta-2c/i in human RPMI8226 cells by fluorescent densitometry; type: cell-based; settings: rpmi-8226
RPMI-8226 [14] = experiment: Ratio of IC50 for 20s proteasome subunit beta-1c to IC50 for proteasome subunit beta-1i in human RPMI8226 cells; type: cell-based
RPMI-8226 [15] = experiment: Ratio of IC50 for proteasome subunit beta-1i to IC50 for proteasome subunit beta-5c/I in human RPMI8226 cells; type: cell-based
[16] = Inhibition of proteasome subunit beta-5c/i in human RPMI8226 cells by fluorescent densitometry; type: cell-based; settings: rpmi-8226
Raji = experiment: Ratio of IC50 for 20s proteasome subunit beta-1c to IC50 for proteasome subunit beta-1i in human Raji cells; type: cell-based

SMILES	IC50 [1]	IC50 [2]	IC50 [3]	IC50 [4]	IC50 [5]	IC50 [6]	IC50 [7]	IC50 [8]	IC50 [9]	IC50 [10]	IC50 [11]	IC50 [12]	IC50 [13]	Ratio IC50 (RPMI-8226 [14])	Ratio IC50 (RPMI-8226 [15])	IC50 [16]	Ratio IC50 (Raji)
CC1=C(C(=O)N[C@H](C)C(=O)N[C@@H](Cc2c[nH]c3ccccc23)C(=O)N[C@@H](CC2CCCCC2)C(=O)[C@@]2(C)CO2)Cc2ccccc21	> 10 µM	> 100 µM	16000 nM	8.3 nM	> 10 µM	230 nM	> 100000 nM	4600 nM	7100 nM	> 10 µM	> 100 µM	> 100 µM					
CCCC[C@H](NC(=O)[C@@H]1CCCN1C(=O)[C@H](C)NC(=O)CN=[N+]=[N-])C(=O)N[C@@H](CC(C)C)C(=O)[C@@]1(C)CO1			140 nM		0.088 µM				45 nM			0.37 µM	> 10 µM	3	> 70	> 10 µM	2
CC1=C(C(=O)N[C@H](C)C(=O)N[C@@H](Cc2c[nH]c3ccccc23)C(=O)N[C@@H](Cc2ccccc2)C(=O)[C@@]2(C)CO2)Cc2ccccc21	> 10 µM	> 100 µM	3500 nM	2.5 nM	> 10 µM	25 nM	2900 nM	227 nM	1840 nM	> 10 µM	> 100 µM	> 100 µM					
CCCC[C@H](NC(=O)[C@@H]1CC(F)(F)CN1C(=O)[C@H](C)NC(=O)CN=[N+]=[N-])C(=O)N[C@@H](CC1CCCCC1)C(=O)[C@@]1(C)CO1	> 100 µM		130 nM		24 µM				95 nM			47 µM	> 100 µM	360	500	65 µM	252
